The record followed here is patent US20230158025A1 (UNIVERSITY OF UTAH RESEARCH FOUNDATION, priority 2020, published 2023).

Like-named read-outs stand apart in the source and are kept apart here.

One series concerns the target recombinant human GALK1 (Homo sapiens, UniProt P51570). The series can be described thus: hGALK1 biochemical activity assay (Kinase-Glo Plus, ATP depletion). The procedure: In vitro hGALK1 activity assays were performed as previously described. Liu et al., Bioorg. Med. Chem. Lett. 25(3): 721-727 (2015), which is incorporated by reference herein for the specific teachings thereof. The biochemical assay was performed by coupling the activity of recombinant human or mouse GALK1 to the Kinase-Glo Plus luminescent ATP detection kit, using ATP depletion as a measure of GALK1 turnover. Specifically, three μL/well of ATP substrate solution (35 μM ATP) in assay buffer (20 mM HEPES pH 8.0, 5 mM MgCl2, 60 mM NaCl, 1 mM DTT, 0.01% BSA final concentration) was dispensed into 1536-well assay plates (Greiner, white solid-bottom medium-binding plates). Aliquots of compound (23 nL solubilized in DMSO) were transferred to the assay plates using a Kalypsys 1536-well pintool such that 11 concentrations with 1/3 dilutions ranging from 57.4 μM-0.97 nM are tested. One μL/well of GALK-galactose solution (5 nM GALK1, 100 μM galactose) in assay buffer was then added, yielding a final reaction volume of 4 μL/well. Following a 1-hour room temperature incubation, 4 μL of Kinase-Glo Plus detection reagent was added to provide an ATP-dependent luminescent readout (final assay volume: 8 μL/well).
(Kinase-Glo measures the ATP left after a reaction by luminescence.)

Series [1] in a line: rat microsomal stability (RLM).
The next series has as its target recombinant mouse GALK1 (Mus musculus, UniProt Q9R0N0). The series can be described thus: mGALK1 biochemical activity assay (Kinase-Glo Plus, ATP depletion). The procedure: In vitro hGALK1 activity assays were performed as previously described. Liu et al., Bioorg. […] The biochemical assay was performed by coupling the activity of recombinant human or mouse GALK1 to the Kinase-Glo Plus luminescent ATP detection kit, using ATP depletion as a measure of GALK1 turnover. […] One μL/well of GALK-galactose solution (5 nM GALK1, 100 μM galactose) in assay buffer was then added, yielding a final reaction volume of 4 μL/well. Following a 1-hour room temperature incubation, 4 μL of Kinase-Glo Plus detection reagent was added to provide an ATP-dependent luminescent readout (final assay volume: 8 μL/well).

The mark [2] stands for this setting: Tables 2-15, 35 μM ATP, 100 μM galactose, 1 h, bracketed figure after some values (e.g. −1.2) is undefined and not reported, read-out: hGALK IC50.
Setting [3] is: recombinant human GALK1, Kinase-Glo Plus ATP depletion, read-out: hGALK.
The mark [4] stands for this setting: Tables 2-15, 35 μM ATP, 100 μM galactose, 1 h, bracketed figure after some values is undefined and not reported, read-out: mGALK IC50.
The mark [5] stands for this setting: recombinant mouse GALK1, Kinase-Glo Plus ATP depletion, read-out: mGALK.

Sequence of recombinant human GALK1 (P51570 whole entry): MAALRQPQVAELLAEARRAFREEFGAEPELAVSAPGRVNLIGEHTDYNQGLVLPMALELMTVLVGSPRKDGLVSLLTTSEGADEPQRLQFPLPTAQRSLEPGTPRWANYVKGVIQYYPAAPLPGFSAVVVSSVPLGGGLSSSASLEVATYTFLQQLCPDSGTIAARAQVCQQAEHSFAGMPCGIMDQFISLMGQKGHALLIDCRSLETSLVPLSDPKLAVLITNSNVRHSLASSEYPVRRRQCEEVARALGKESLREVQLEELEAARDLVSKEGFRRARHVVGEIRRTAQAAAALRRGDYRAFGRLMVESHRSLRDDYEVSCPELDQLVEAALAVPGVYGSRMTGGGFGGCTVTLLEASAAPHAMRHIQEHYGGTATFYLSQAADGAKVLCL
Sequence of recombinant mouse GALK1 (Q9R0N0 whole entry): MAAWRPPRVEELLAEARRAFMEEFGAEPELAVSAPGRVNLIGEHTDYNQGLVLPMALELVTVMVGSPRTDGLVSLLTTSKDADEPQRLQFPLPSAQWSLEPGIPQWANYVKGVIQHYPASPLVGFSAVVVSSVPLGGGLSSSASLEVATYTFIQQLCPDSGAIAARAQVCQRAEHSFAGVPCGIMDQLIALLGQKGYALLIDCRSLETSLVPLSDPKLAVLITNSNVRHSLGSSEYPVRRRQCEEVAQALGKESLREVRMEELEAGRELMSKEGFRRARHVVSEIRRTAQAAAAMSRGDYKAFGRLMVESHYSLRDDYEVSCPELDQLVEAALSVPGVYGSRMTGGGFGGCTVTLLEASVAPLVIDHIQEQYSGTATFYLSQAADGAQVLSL

With `CC1=C(C(=O)Nc2cccc(CCO)c2)C(c2ccccc2Cl)N=C(Nc2nc3ccccc3o2)N1` (centres unmarked) [Compound 201, 2-(benzo[d]oxazol-2-ylamino)-4-(2-chlorophenyl)-N-(3-(2-hydroxyethyl)phenyl)-6-methyl-1,4-dihydropyrimidine-5-carboxamide], the IC50 on recombinant human GALK1 (setting [2]) and on recombinant human GALK1 (setting [3]) was 17.2 µM throughout. Also, in series [1] (microsomal stability half-life), the “Metab. Stabil. (m)” value is listed as 26.59 m.
As to `CC1=C(C(=O)Nc2ccc(-c3cn[nH]c3)cc2)C(c2ccccc2Cl)N=C(Nc2nc3ccccc3o2)N1` (centres unmarked) [Compound 179, N-(4-(1H-pyrazol-4-yl)phenyl)-2-(benzo[d]oxazol-2-ylamino)-4-(2-chlorophenyl)-6-methyl-1,4-dihydropyrimidine-5-carboxamide], the IC50 turned out to be 6.85 µM at recombinant human GALK1 (setting [2]), 6.85 µM on recombinant human GALK1 (setting [3]), 12.2 µM at recombinant mouse GALK1 (setting [4]) and 12.2 µM on recombinant mouse GALK1 (setting [5]).
`CC1=C(C(=O)Nc2ccc(-c3nn[nH]n3)cn2)C(c2ccccc2Cl)N=C(Nc2nc3ccc(F)cc3o2)N1` (centres unmarked) [Compound 35, N-(5-(2H-tetrazol-5-yl)pyridin-2-yl)-4-(2-chlorophenyl)-2-((6-fluorobenzo[d]oxazol-2-yl)amino)-6-methyl-1,4-dihydropyrimidine-5-carboxamide]: the IC50 is 4.85 µM on recombinant human GALK1 (setting [3]) and 12.2 µM on recombinant mouse GALK1 (setting [5]).
As for `COc1ccc([C@@H]2N=C(Nc3nc4ccc(F)cc4o3)NC(C)=C2C(=O)Nc2cc(C(=O)O)ccn2)c(Cl)c1` [Compound 53, (R)-2-(4-(2-chloro-4-methoxyphenyl)-2-((6-fluorobenzo[d]oxazol-2-yl)amino)-6-methyl-1,4-dihydropyrimidine-5-carboxamido)isonicotinic acid], the IC50 on recombinant human GALK1 (setting [2]) was determined as 0.25 µM; at recombinant human GALK1 (setting [3]), 0.25 µM; at recombinant mouse GALK1 (setting [4]) it was 1.99 µM; at recombinant mouse GALK1 (setting [5]), 1.99 µM.
For `COC(=O)c1ccnc(NC(=O)C2=C(C)NC(Nc3nc4ccc(F)cc4o3)=N[C@H]2c2ccccc2Cl)c1` [Compound 31, (R)-methyl 2-(4-(2-chlorophenyl)-2-((6-fluorobenzo[d]oxazol-2-yl)amino)-6-methyl-1,4-dihydropyrimidine-5-carboxamido)isonicotinate], the results for the IC50 at recombinant human GALK1 (setting [3]) and at recombinant mouse GALK1 (setting [5]) were 3.06 µM and 4.32 µM, respectively. Besides, the “Perm. (1 × 10^−6 cm/sec)” value in the series “PAMPA permeability” was <21.9 1 × 10^−6 cm/sec. The “Metab. Stabil. (m)” value in series [1] (microsomal half-life) is recorded as 30.91 m.
With `CC1=C(C(=O)NCc2ccccc2O)C(c2ccccc2Cl)N=C(Nc2nc3ccccc3o2)N1` (centres unmarked) [Compound 219, 2-(benzo[d]oxazol-2-ylamino)-4-(2-chlorophenyl)-N-(2-hydroxybenzyl)-6-methyl-1,4-dihydropyrimidine-5-carboxamide], the results for the IC50 on recombinant human GALK1 (setting [2]), on recombinant mouse GALK1 (setting [4]) and on recombinant mouse GALK1 (setting [5]) were 6.85 µM, 10.9 µM and 10.9 µM, respectively. For the same molecule, the “Perm. (1 × 10^−6 cm/sec)” value in the series “PAMPA permeability” (PAMPA) is listed as <19.3 1 × 10^−6 cm/sec. In addition, the “Metab. Stabil. (m)” value in series [1] (microsomal stability half-life) turned out to be 5.188 m.
For the molecule `CC1=C(C(=O)Nc2cc(C(=O)O)ccc2C)C(c2ccccc2Cl)N=C(Nc2nc3ccc(F)cc3o2)N1` (centres unmarked) [Compound 28, 3-(4-(2-chlorophenyl)-2-((6-fluorobenzo[d]oxazol-2-yl)amino)-6-methyl-1,4-dihydropyrimidine-5-carboxamido)-4-methylbenzoic acid], the IC50 was found to be 3.43 µM at recombinant human GALK1 (setting [3]) and 17.2 µM on recombinant mouse GALK1 (setting [5]).
Turning to `CC1=C(C(=O)NCc2cn(C)cn2)C(c2ccccc2Cl)N=C(Nc2nc3ccc(F)cc3o2)N1` (centres unmarked) [Compound 34, 4-(2-chlorophenyl)-2-((6-fluorobenzo[d]oxazol-2-yl)amino)-6-methyl-N-((1-methyl-1H-imidazol-4-yl)methyl)-1,4-dihydropyrimidine-5-carboxamide], the IC50 amounted to 8.63 µM on recombinant human GALK1 (setting [3]) and 19.3 µM at recombinant mouse GALK1 (setting [5]).
In the same order, the values of `CC1=C(C(=O)Nc2ccc(C(N)=O)cn2)C(c2ccccc2Cl)N=C(Nc2nc3ccc(F)cc3o2)N1` (centres unmarked) [Compound 36, N-(5-carbamoylpyridin-2-yl)-4-(2-chlorophenyl)-2-((6-fluorobenzo[d]oxazol-2-yl)amino)-6-methyl-1,4-dihydropyrimidine-5-carboxamide] are 2.43 µM and 6.85 µM.
On to `CC1=C(C(=O)Nc2nc(C(=O)O)cs2)C(c2ccccc2Cl)N=C(Nc2nc3ccccc3o2)N1` (centres unmarked) [Compound 200, 2-(2-(benzo[d]oxazol-2-ylamino)-4-(2-chlorophenyl)-6-methyl-1,4-dihydropyrimidine-5-carboxamido)thiazole-4-carboxylic acid], for which the IC50 on recombinant human GALK1 (setting [2]) turned out to be 9.68 µM; at recombinant human GALK1 (setting [3]), 9.68 µM; at recombinant mouse GALK1 (setting [4]), 19.3 µM; at recombinant mouse GALK1 (setting [5]), 19.3 µM.
As to `CC1=C(C(=O)Nc2ccc(-n3cncn3)cc2)C(c2ccccc2Cl)N=C(Nc2nc3ccccc3o2)N1` (centres unmarked) [Compound 191, N-(4-(1H-1,2,4-triazol-1-yl)phenyl)-2-(benzo[d]oxazol-2-ylamino)-4-(2-chlorophenyl)-6-methyl-1,4-dihydropyrimidine-5-carboxamide], the IC50 on recombinant human GALK1 (setting [2]) was 24.3 µM; on recombinant human GALK1 (setting [3]), 24.3 µM; at recombinant mouse GALK1 (setting [4]), 34.3 µM; on recombinant mouse GALK1 (setting [5]), 34.3 µM.
For the molecule `COC(=O)c1ccnc(NC(=O)C2=C(C)NC(Nc3nc4ccc(F)cc4o3)=N[C@@H]2c2ccccc2Cl)c1` [Compound 32, (S)-methyl 2-(4-(2-chlorophenyl)-2-((6-fluorobenzo[d]oxazol-2-yl)amino)-6-methyl-1,4-dihydropyrimidine-5-carboxamido)isonicotinate], the IC50 turned out to be 12.2 µM on recombinant human GALK1 (setting [3]) and 86.3 µM at recombinant mouse GALK1 (setting [5]). In addition, in “PAMPA permeability”, the “Perm. (1 × 10^−6 cm/sec)” value was <7.4 1 × 10^−6 cm/sec. Moreover, in series [1] (microsomal half-life), the “Metab. Stabil. (m)” value turned out to be 24.28 m.
With `CC1=C(C(=O)Nc2ccc(O)cc2)C(c2ccccc2Cl)N=C(Nc2nc3ccccc3o2)N1` (centres unmarked) [Compound 162, 2-(benzo[d]oxazol-2-ylamino)-N-(4-hydroxyphenyl)-4-(2-chlorophenyl)-6-methyl-1,4-dihydropyrimidine-5-carboxamide], the values for the IC50 at recombinant human GALK1 (setting [3]), at recombinant mouse GALK1 (setting [4]) and at recombinant mouse GALK1 (setting [5]) were 3.85 µM, 9.68 µM and 9.68 µM, respectively. In addition, the “Perm. (1 × 10^−6 cm/sec)” value in the series “PAMPA permeability” (PAMPA) is given as <14.5 1 × 10^−6 cm/sec. The “Metab. Stabil. (m)” value in series [1] (microsomal stability half-life) is listed as above 30 m.
As for `CC1=C(C(=O)Nc2ccccc2C(=O)O)C(c2ccccc2Cl)N=C(Nc2nc3ccccc3o2)N1` (centres unmarked) [Compound 159, 2-(2-(benzo[d]oxazol-2-ylamino)-4-(2-chlorophenyl)-6-methyl-1,4-dihydropyrimidine-5-carboxamido)benzoic acid], the IC50 at recombinant human GALK1 (setting [3]) stood at 34.4 µM.
With `COC(=O)c1ccccc1NC(=O)C1=C(C)NC(Nc2nc3ccccc3o2)=NC1c1ccccc1Cl` (centres unmarked) [Compound 146], the “hGALK IC50” value at recombinant human GALK1 (Tables 2-15, 35 μM ATP, 100 μM galactose, 1 h, bracketed figure after some values (e.g. −1.2) is undefined and not reported) is “inactive”. Moreover, at recombinant human GALK1 (recombinant human GALK1, Kinase-Glo Plus ATP depletion), the “hGALK (μM)” value was “in- active”. For the same molecule, at recombinant mouse GALK1 (Tables 2-15, 35 μM ATP, 100 μM galactose, 1 h, bracketed figure after some values is undefined and not reported), the “mGALK IC50” value is “inactive”. The “mGALK (μM)” value at recombinant mouse GALK1 (recombinant mouse GALK1, Kinase-Glo Plus ATP depletion) was “in- active”.
For the molecule `CCn1cc(CNC(=O)C2=C(C)NC(Nc3nc4cccc(N)c4o3)=NC2c2ccc(F)cc2Cl)cn1` (centres unmarked) [Compound 118, 2-((7-aminobenzo[d]oxazol-2-yl)amino)-4-(2-chloro-4-fluorophenyl)-N-((1-ethyl-1H-pyrazol-4-yl)methyl)-6-methyl-1,4-dihydropyrimidine-5-carboxamide], the IC50 is 0.76 µM at recombinant human GALK1 (setting [3]) and 7.69 µM at recombinant mouse GALK1 (setting [5]). For the same molecule, the “Perm. (1 × 10^−6 cm/sec)” value in “PAMPA permeability” (PAMPA) is listed as 188.9 1 × 10^−6 cm/sec. Moreover, the “Metab. Stabil. (m)” value in series [1] (microsomal stability half-life) came to 18.81 m.
Turning to `CC1=C(C(=O)Nc2cc(C(=O)O)ccn2)[C@H](c2ccccc2Cl)N=C(Nc2nc3cccc(N)c3o2)N1` [Compound 24, (R)-2-(2-((7-aminobenzo[d]oxazol-2-yl)amino)-4-(2-chlorophenyl)-6-methyl-1,4-dihydropyrimidine-5-carboxamido)isonicotinic acid], the IC50 was 0.08 µM at recombinant human GALK1 (setting [2]), 0.86 µM at recombinant human GALK1 (setting [3]), 1.72 µM on recombinant mouse GALK1 (setting [4]) and 1.72 µM on recombinant mouse GALK1 (setting [5]).
`COc1ccc([C@H]2N=C(Nc3nc4ccc(F)cc4o3)NC(C)=C2C(=O)Nc2cc(C(=O)O)ccn2)c(Cl)c1` [Compound 54, (S)-2-(4-(2-chloro-4-methoxyphenyl)-2-((6-fluorobenzo[d]oxazol-2-yl)amino)-6-methyl-1,4-dihydropyrimidine-5-carboxamido)isonicotinic acid]: the IC50 on recombinant human GALK1 (setting [2]) was found to be 4.84 µM; on recombinant human GALK1 (setting [3]), 4.85 µM; on recombinant mouse GALK1 (setting [4]) it was 19.3 µM; at recombinant mouse GALK1 (setting [5]), 19.3 µM.
